Measurements: patent US20220105053A1, “PHARMACEUTICAL COMPOSITION FOR PREVENTION OR TREATMENT OF ACIDOSIS” (HAIM BIO CO., LTD., priority 2018, published 2022)

These molecules were tested on A549 cancer cells (assay: Lactic acid concentration-decreasing effect in A549 cell culture (lactate assay, luminescence, normalised to cell number)). Settings: 50 μM candidate substance, 24 hours, compared with the positive control (50 μM sodium oxamate), average of 3 experiments.
Type: cell-based, human
Experimental: To this end, first, A549 cancer cells (adenocarcinomic human alveolar basal epithelial cells, Cat #CCL-185) obtained from the American Type Culture Collection (ATCC) were cultured in RPMI 1640 culture medium containing 10% fetal bovine serum and 1% antibiotic-antimycotic agent under an environment at 37° C. and 5% CO2, and passages were performed every 3 days. Lactic acid is produced in large amounts when glycolysis is activated in hypoxia. Cancer cells, which are densely packed with cells, are very active in energy-consuming activities, and thus are known to produce lactic acid in large amounts.
The cells were seeded in 24-well plates at a concentration of 3×10^5 cells/well, and incubation was performed overnight. Then, each plate was treated with each of the candidate substances (at a concentration of 50 μM) as shown in Table 1 which had been dissolved in dimethyl sulfoxide (DMSO). Incubation was further performed for 24 hours. For the negative control for the candidate substances, no treatment was performed; and for the positive control, treatment with sodium oxamate, which is conventionally known as a therapeutic agent for lactic acidosis, was performed at the same concentration (50 μM) or the […] higher concentration (50 mM). Subsequently, 50 μl of the cell culture solution obtained by being diluted with Dulbecco's Phosphate-Buffered Saline (DPBS), and 50 μl of the lactate assay reaction buffer (Promega, Madison, Wis., USA) were mixed and the mixture was added in a 96-well plate. Reaction was allowed to proceed at room temperature for 1 hour. Then, luminescence was measured with a spectrophotometer (Synergy HTX Multi-Reader, BioTek). At the same time, the number of cells in each sample was measured with a cell viability analysis kit (Cell Counting Kit-8), and calculation was performed so that the lactic acid measurement value in each sample could be compared with that in the negative control for the same number of cells.

Compound	lactic acid concentration-decreasing effect
Nc1c(O)cccc1C(=O)CC(N)C(=O)O (racemic) [3-hydroxy-DL-kynurenine, 3-Hydroxy-DL-kynurenine]	about 20%
C=C(OP(=O)([O-])O)C(=O)O.O.[Na+] [Phospho(enol)pyruvic acid monosodium salt hydrate]	about 15%
N.N.[Cl][Pt][Cl] [cis-diamminedichloridoplatinum, Cis-diamminedichloridoplatinum]	about 15%
CCN(CC)c1ccc(C=O)cc1 [diethylaminobenzaldehyde, Diethylaminobenzaldehyde]	about 20%
